Results reported in patent publication US20210246109A1, “POTENT AND SELECTIVE INHIBITORS OF CYTOCHROME P450” (University of Kentucky Research Foundation, priority 2020, published 2021).
“And” between values parts separate entries of the source, which are not always exact repeats. Identical values can stand only once. Like-named read-outs stand apart in the source and are kept apart here.

Assays:
[1] = target: T1, CYP1B1 (Homo sapiens, UniProt Q16678); experiment: EROD assay in inducible CYP1B1 cell line; assay type: cell-based
T1 construct: expressed in transfected cells
T1 sequence (Q16678 1-543): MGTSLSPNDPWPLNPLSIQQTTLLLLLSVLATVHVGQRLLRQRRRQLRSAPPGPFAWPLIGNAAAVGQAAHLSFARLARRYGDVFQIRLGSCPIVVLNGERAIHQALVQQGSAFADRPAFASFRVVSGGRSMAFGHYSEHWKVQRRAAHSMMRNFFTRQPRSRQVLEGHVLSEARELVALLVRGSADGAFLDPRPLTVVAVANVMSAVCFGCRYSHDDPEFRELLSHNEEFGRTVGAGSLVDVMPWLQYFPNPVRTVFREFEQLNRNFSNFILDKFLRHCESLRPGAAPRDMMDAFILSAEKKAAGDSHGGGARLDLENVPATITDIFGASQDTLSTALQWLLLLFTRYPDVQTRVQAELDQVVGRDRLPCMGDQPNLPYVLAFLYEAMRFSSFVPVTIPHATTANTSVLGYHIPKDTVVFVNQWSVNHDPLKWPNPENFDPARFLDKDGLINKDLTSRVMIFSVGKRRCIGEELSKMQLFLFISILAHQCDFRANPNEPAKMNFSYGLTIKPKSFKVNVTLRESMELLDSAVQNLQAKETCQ
Protocol: (§1) The activity of the inhibitors was assessed in a novel cell based assay generated for the purpose of this project. Enzymatic turnover of CYP1B1 was measured using the ethoxy-resorufin-O-deethylase (EROD) assay with the fluorescent substrate, resorufin ethyl ether. Cell lines were generated where the gene for CYP1B1 alone or CYP1B1 and cytochrome P450 reductase (CPR) were both under the control of an inducible promoter. A cell line was generated for counter screening where the gene for CYP1A1 was used. CYP1A1 is the closest family member to CYP1B1.

[2] = target: T2, CYP1A1 (Homo sapiens, UniProt P04798); experiment: EROD assay in CYP1A1 counter-screen cell line; assay type: cell-based; details: for SI 1B1:1A1: selectivity index
T2 construct: expressed in transfected cells
T2 sequence (P04798 1-512): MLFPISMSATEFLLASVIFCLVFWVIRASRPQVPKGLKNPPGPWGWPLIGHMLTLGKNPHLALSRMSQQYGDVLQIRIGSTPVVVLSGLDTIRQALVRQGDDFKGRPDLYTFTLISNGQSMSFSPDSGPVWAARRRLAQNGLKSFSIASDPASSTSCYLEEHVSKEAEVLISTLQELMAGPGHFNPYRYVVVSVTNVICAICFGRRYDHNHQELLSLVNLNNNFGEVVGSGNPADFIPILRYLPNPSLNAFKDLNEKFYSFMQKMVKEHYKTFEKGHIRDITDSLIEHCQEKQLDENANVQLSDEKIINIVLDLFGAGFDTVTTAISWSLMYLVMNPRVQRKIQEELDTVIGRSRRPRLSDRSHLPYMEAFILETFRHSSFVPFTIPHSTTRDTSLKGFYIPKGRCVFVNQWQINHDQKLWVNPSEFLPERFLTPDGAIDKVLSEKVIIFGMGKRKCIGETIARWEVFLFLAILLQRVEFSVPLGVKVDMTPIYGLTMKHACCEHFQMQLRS
Protocol: as §1

[3] = target: T3, pooled human liver microsomes (pHLMs) (Homo sapiens, UniProt P05177); experiment: EROD counterscreen in pooled human liver microsomes; assay type: biochemical; details: for IC50: human, microsomes; for SI 1B1:HLM: selectivity index
T3 sequence (P05177 2-516): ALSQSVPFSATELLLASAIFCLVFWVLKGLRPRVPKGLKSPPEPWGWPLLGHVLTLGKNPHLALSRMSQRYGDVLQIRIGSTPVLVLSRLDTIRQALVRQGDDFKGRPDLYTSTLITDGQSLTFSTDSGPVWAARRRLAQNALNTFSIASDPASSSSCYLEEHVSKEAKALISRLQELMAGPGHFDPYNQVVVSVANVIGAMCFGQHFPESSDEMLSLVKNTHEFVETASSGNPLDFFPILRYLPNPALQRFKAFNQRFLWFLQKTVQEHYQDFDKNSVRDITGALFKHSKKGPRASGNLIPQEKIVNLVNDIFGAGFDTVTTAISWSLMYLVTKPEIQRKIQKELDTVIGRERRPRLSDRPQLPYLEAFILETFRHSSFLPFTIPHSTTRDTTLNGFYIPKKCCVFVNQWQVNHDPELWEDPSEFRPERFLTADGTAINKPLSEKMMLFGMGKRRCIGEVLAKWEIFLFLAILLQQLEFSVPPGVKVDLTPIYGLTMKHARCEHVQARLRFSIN
Text: (§2) Human liver microsomes were used as a counterscreen to experimentally determine the magnitude of inhibitor selectivity.

[4] = Cytotoxicity, resazurin, 72 hours after compound addition; assay type: cell-based; details: human, HEK cells
Protocol: (§3) Cytotoxicity was assessed at 72 hours after compound addition using resazurin. The compounds that function as selective 1B1 inhibitors had no effect on cell health. This is an essential feature for any chemopreventative agent or molecules intended to block the detrimental action of an enzyme.

[5] = system: HEK; experiment: as above; assay type: cell-based; details: Table 3, HEK
Protocol: as §3

[6] = target: T3, pooled human liver microsomes (pHLMs); experiment: EROD counterscreen in pooled human liver microsomes; assay type: biochemical; parameters: IC50 pHLM; EROD assay; details: human, microsomes, Table 2; EROD assay
Text: as §2

[7] = human, probe resorufin ethyl ether, Table 3, read-out: IC50 1A1
[8] = Table 1, 72 hours, resazurin, read-out: Cytotoxicity IC50
[9] = Table 2, EROD assay, read-out: IC50 CYP1B1
[10] = Table 2, EROD assay, read-out: IC50 CYP1A1

| IC50 ([1]; Table 3, read-out: IC50 1B1) | IC50 ([3]; Table 3, read-out: IC50 pHLM) [µM] | IC50 ([2]; Table 3, read-out: IC50 1A1) | SMILES | HEK cell viability % at 10 μM [5] [%] | also measured |
| --- | --- | --- | --- | --- | --- |
| 76 nM | 0.91 ± 0.37 | – | COc1ccc(/C=C/c2ccncn2)c(OC)c1 [GL433] | – | activity as CYP1B1 inhibitor, in words [1]: potent; IC50 ([1]; Table 1, read-out: CYP1B1 IC50): 76 nM; IC50 ([2]; human, probe resorufin ethyl ether, Table 1, read-out: CYP1A1 IC50): 10 µM; IC50 [2, 7]: 10 µM; IC50 ([3]; Table 1, read-out: hLM IC50): 1.1 µM; IC50 at 72 h [4, 8]: > 10 µM; IC50 ([5]; read-out: HEK cytotoxicity): > 10 µM |
| 510 nM | 1.57 ± 0.29 | 2.6 µM | COc1ccc(/C=C/c2cnccn2)c(OC)c1 [GL435] | 71.4 | – |
| 660 nM | 5.27 ± 1.6 | 4.28 µM and 3.29 µM | COc1cc(/C=C/c2cnccn2)cc(OC)c1 [GL437] | 103.1 | – |
| 760 nM | 2.3 ± 0.98 | > 10 µM | COc1cc(/C=C/c2ccncn2)cc(OC)c1 [GL443] | 105.2 | – |
| 210 nM | 0.15 ± 0.08 | > 10 µM | COc1cc(OC)c(/C=C/c2ccncn2)c(OC)c1 [GL456] | 93.6 | IC50 [2, 7]: 10 µM |
| 310 nM | 0.42 ± 0.24 | 0.403 µM and 0.36 µM | COc1ccc(/C=C/c2cccnc2)c(OC)c1 [GL457] | 91.5 | – |
| 2510 nM | 2.26 ± 1.05 | 4.13 µM and 2.5 µM | COc1ccc(/C=C/c2cncnc2)c(OC)c1 [GL458] | 95.8 | – |
| 260 nM | 4.4 ± 1.71 | 0.73 µM and 0.74 µM | COc1cc(/C=C/c2ccncn2)cc(OC)c1OC [GL465] | 83.4 | – |
| 105 nM | 32.9 | 5.6 µM | C#CCOc1ccc(/C=C/c2ccncn2)cc1 [GL508] | 93.4 | IC50 [2, 7]: 10 µM |
| – | 0.857 | – | C#CCOc1ccc(-c2nc3ccccc3c(=O)[nH]2)cc1 [GL510] | – | IC50 at 72 h ([4]; Table 3, HEK, read-out: HEK cytotoxicity): 0.406 µM |
| 11.8 nM | 7.71 | > 10 µM | O=c1[nH]c(-c2ccc(OC/C(I)=C\I)cc2)nc2ccccc12 [GL511] | 64.3 | – |
| 11.6 nM | 16.9 | 2.4 µM and 1.04 µM | COc1ccc(-c2nc(O)c3ccccc3n2)c(OC)c1 [GL512] | 85.3 | – |
| 36 nM | 26.2 | 0.121 µM and 0.075 µM and 0.091 µM | COc1ccc(-c2nc3ccc(I)cc3c(=O)[nH]2)c(OC)c1 [GL513] | 83.4 | – |
| 660 nM | 105 | 4.42 µM and 3.5 µM | C#CCn1c(-c2ccc(OC)cc2OC)nc2ccc(I)cc2c1=O [GL514] | 72.5 | – |
| 14 nM | 126 | 4.58 µM and 2.46 µM and 1.9 µM | C#CCOc1ccc(-c2nc3ccc(I)cc3c(=O)[nH]2)cc1 [GL516] | 40.8 | – |
| > 500 nM | 146 | > 10 µM | COc1ccc(-c2nc3ccccc3c(=O)n2C)c(OC)c1 [GL517] | 107 | – |
| 0.88 nM and 0.92 nM | 1.74 | 2.57 µM | N#CCOc1ccc(-c2nc3ccccc3c(=O)[nH]2)cc1 [GL520] | 89 | – |
| – | > 10 | 2.27 µM and 0.97 µM | COc1cc(-c2nc3ccccc3c(=O)[nH]2)ccc1OCC#N [GL522] | 80.6 | – |
| 4.9 nM and 6.4 nM | – | > 10 µM | N#CCOc1ccc(/C=C/c2ccncn2)cc1 [GL543] | – | IC50 ([1]; Table 1, read-out: CYP1B1 IC50): 4.9 nM; IC50 ([2]; Table 1, read-out: CYP1A1 IC50): > 10 µM; IC50 ([3]; Table 1, read-out: hLM IC50): > 10 µM; IC50 at 72 h [4, 8]: > 10 µM |
| < 2.5 nM | > 10 | 3.58 µM | N#CCOc1ccc(-c2nc(OCCCNC(=O)OCCOCCOCCOC(=O)NC34CC5CC(CC(C5)C3)C4)c3ccccc3n2)cc1 [GL581] | – | IC50 ([1]; Table 1, read-out: CYP1B1 IC50): 0.12 nM; IC50 ([2]; Table 1, read-out: CYP1A1 IC50): 3.6 µM; IC50 at 72 h [4, 8]: > 10 µM |
| – | – | – | COc1ccc(-c2csc(-c3ccc(O)cc3)n2)c(OC)c1 [GL650] | – | IC50 [1, 9]: 61.9 nM; IC50 [2, 10]: 1.96 µM; SI 1B1:1A1 [2]: 32; SI 1B1:HLM [3]: 89.7; IC50 [6]: 5.55 µM |
| – | – | – | COc1ccc(-c2csc(-c3cccnc3)n2)c(OC)c1 [GL654] | – | IC50 [1, 9]: 19.8 nM; IC50 [2, 10]: 0.151 µM; SI 1B1:1A1 [2]: 7.6; SI 1B1:HLM [3]: 0.00082; IC50 [6]: 0.0001 µM |
| – | – | – | Oc1ccc(-c2csc(-c3cccnc3)n2)cc1 [GL671] | – | IC50 [1, 9]: 2230 nM; IC50 [2, 10]: 1.41 µM; SI 1B1:1A1 [2]: 0.63; SI 1B1:HLM [3]: 0.024; IC50 [6]: 0.526 µM |
| – | – | – | Oc1ccc(-c2csc(-c3ccccn3)n2)cc1 [GL672] | – | IC50 [1, 9]: 1020 nM; IC50 [2, 10]: 1.32 µM; SI 1B1:1A1 [2]: 1.3; SI 1B1:HLM [3]: 1.63; IC50 [6]: 1.65 µM |
| – | – | – | COc1ccc(-c2nc(-c3ccc(F)c(C(F)(F)F)c3)cs2)c(OC)c1 [GL674] | – | IC50 [1, 9]: 0.98 nM; IC50 [2, 10]: 5.08 µM; SI 1B1:1A1 [2]: 5187; SI 1B1:HLM [3]: >10204; IC50 [6]: > 10 µM |
| – | – | – | c1ccc(-c2nc(-c3cccnc3)cs2)nc1 [GL681] | – | IC50 [1, 9]: 2390 nM; IC50 [2, 10]: 0.085 µM; SI 1B1:1A1 [2]: 0.035; SI 1B1:HLM [3]: 0.14; IC50 [6]: 3.24 µM |
| – | – | – | COc1cc(OC)cc(-c2nc(-c3ccc(F)cc3)cs2)c1 [GL683] | – | IC50 [1, 9]: < 0.01 nM; IC50 [6]: > 10 µM |
| – | – | – | COc1cc(OC)cc(-c2nc(-c3cccc(C(F)(F)F)c3)cs2)c1 [GL684] | – | IC50 [1, 9]: < 0.01 nM; IC50 [2, 10]: 2.78 µM; SI 1B1:1A1 [2]: >27800; SI 1B1:HLM [3]: >1000000; IC50 [6]: > 10 µM |
